{"source": "patent US10285382B2", "about": "(priority 2017, dated 2019)", "system": "eggs", "key": {"[1]": {"settings": "4 day delta: Day 4 DHP+ versus Day 4 DHP−"}, "[2]": {"settings": "5 day delta: Day 5 DHP+ versus Day 5 DHP−"}, "[3]": {"settings": "6 day delta: Day 6 DHP+ versus Day 6 DHP−"}, "[4]": {"settings": "Day 4 DHP+, summary over replicates stored 4 days"}, "[5]": {"settings": "Day 5 DHP+, summary over replicates stored 5 days"}, "[6]": {"settings": "Day 6 DHP+, summary over replicates stored 6 days"}, "[7]": {"settings": "Day 7 DHP+, summary over replicates stored 7 days"}}, "note": "Read-outs that look alike come from different tables or passages of the source.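 Also: paired egg replicates incubated to hatching under standard commercial conditions, then each category scored at hatch as percent of eggs in the replicate.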", "procedure": "A total of 22 replicates of 90 eggs each of age matched, flock matched eggs are stored prior to incubation for 4 to 7 days in an on-site egg room at about 20° C. […] The paired replicates are then incubated to hatching under standard commercial conditions. At hatching, the following parameters are assessed and recorded: Total Hatchability (%), Fertile Hatchability (%), % Infertile, Early dead (%), Mid dead (%), Late dead (%), Cracked (%), Contaminated (%), Live pip (%), Dead pip (%), Cull dead chick (%), Chick Weight (g), Chick A (%), and Chick B (%).", "data": [{"smiles": "OO", "note": "[DHP, dry hydrogen peroxide]", "values": [{"measurement": "% Infertile, delta", "setting": "[1]", "result": 0.64, "unit": "%"}, {"measurement": "Chick A, delta", "setting": "[1]", "result": 0.14, "unit": "%"}, {"measurement": "Chick B, delta", "setting": "[1]", "result": "−0.14", "unit": "%"}, {"measurement": "Chick Weight, delta", "setting": "[1]", "result": 0.89, "unit": "g"}, {"measurement": "Cont, delta", "setting": "[1]", "result": 0.00, "unit": "%"}, {"measurement": "Crack, delta", "setting": "[1]", "result": 0.32, "unit": "%"}, {"measurement": "Cull dead cks, delta", "setting": "[1]", "result": 0.00, "unit": "%"}, {"measurement": "Dead pip, delta", "setting": "[1]", "result": "−0.16", "unit": "%"}, {"measurement": "Early dead, delta", "setting": "[1]", "result": "−0.33", "unit": "%"}, {"measurement": "Fertile Hatchability, delta", "setting": "[1]", "result": 0.12, "unit": "%"}, {"measurement": "Late dead, delta", "setting": "[1]", "result": "−0.64", "unit": "%"}, {"measurement": "Live pip, delta", "setting": "[1]", "result": 0.63, "unit": "%"}, {"measurement": "Mid dead, delta", "setting": "[1]", "result": 0.16, "unit": "%"}, {"measurement": "Total Hatchability, delta", "setting": "[1]", "result": "−0.64", "unit": "%"}, {"measurement": "% Infertile, delta", "setting": "[2]", "result": 1.84, "unit": "%"}, {"measurement": "Chick A, delta", "setting": "[2]", "result": 1.73, "unit": "%"}, {"measurement": "Chick B, delta", "setting": "[2]", "result": "−1.73", "unit": "%"}, {"measurement": "Chick Weight, delta", "setting": "[2]", "result": 0.85, "unit": "g"}, {"measurement": "Cont, delta", "setting": "[2]", "result": 0.00, "unit": "%"}, {"measurement": "Crack, delta", "setting": "[2]", "result": "−0.19", "unit": "%"}, {"measurement": "Cull dead cks, delta", "setting": "[2]", "result": 0.00, "unit": "%"}, {"measurement": "Dead pip, delta", "setting": "[2]", "result": "−0.37", "unit": "%"}, {"measurement": "Early dead, delta", "setting": "[2]", "result": "−1.70", "unit": "%"}, {"measurement": "Fertile Hatchability, delta", "setting": "[2]", "result": 3.20, "unit": "%"}, {"measurement": "Late dead, delta", "setting": "[2]", "result": "−2.05", "unit": "%"}, {"measurement": "Live pip, delta", "setting": "[2]", "result": 0.37, "unit": "%"}, {"measurement": "Mid dead, delta", "setting": "[2]", "result": 0.74, "unit": "%"}, {"measurement": "Total Hatchability, delta", "setting": "[2]", "result": 1.36, "unit": "%"}, {"measurement": "% Infertile, delta", "setting": "[3]", "result": 0.94, "unit": "%"}, {"measurement": "Chick A, delta", "setting": "[3]", "result": "−0.57", "unit": "%"}, {"measurement": "Chick B, delta", "setting": "[3]", "result": 0.57, "unit": "%"}, {"measurement": "Chick Weight, delta", "setting": "[3]", "result": 0.49, "unit": "g"}, {"measurement": "Cont, delta", "setting": "[3]", "result": 0.00, "unit": "%"}, {"measurement": "Crack, delta", "setting": "[3]", "result": 0.00, "unit": "%"}, {"measurement": "Cull dead cks, delta", "setting": "[3]", "result": "−0.48", "unit": "%"}, {"measurement": "Dead pip, delta", "setting": "[3]", "result": "−0.48", "unit": "%"}, {"measurement": "Early dead, delta", "setting": "[3]", "result": "−2.77", "unit": "%"}, {"measurement": "Fertile Hatchability, delta", "setting": "[3]", "result": 4.67, "unit": "%"}, {"measurement": "Late dead, delta", "setting": "[3]", "result": "−0.82", "unit": "%"}, {"measurement": "Live pip, delta", "setting": "[3]", "result": "−0.16", "unit": "%"}, {"measurement": "Mid dead, delta", "setting": "[3]", "result": 0.48, "unit": "%"}, {"measurement": "Total Hatchability, delta", "setting": "[3]", "result": 2.96, "unit": "%"}, {"measurement": "% Infertile", "setting": "[4]", "result": 2.39, "unit": "%"}, {"measurement": "Chick A", "setting": "[4]", "result": 96.98, "unit": "%"}, {"measurement": "Chick B", "setting": "[4]", "result": 3.02, "unit": "%"}, {"measurement": "Chick Weight", "setting": "[4]", "result": 44.69, "unit": "g"}, {"measurement": "Cont", "setting": "[4]", "result": 0.00, "unit": "%"}, {"measurement": "Crack", "setting": "[4]", "result": 0.48, "unit": "%"}, {"measurement": "Cull dead cks", "setting": "[4]", "result": 0.00, "unit": "%"}, {"measurement": "Dead pip", "setting": "[4]", "result": 0.16, "unit": "%"}, {"measurement": "Early dead", "setting": "[4]", "result": 4.12, "unit": "%"}, {"measurement": "Fertile Hatchability", "setting": "[4]", "result": 92.21, "unit": "%"}, {"measurement": "Late dead", "setting": "[4]", "result": 1.74, "unit": "%"}, {"measurement": "Live pip", "setting": "[4]", "result": 0.95, "unit": "%"}, {"measurement": "Mid dead", "setting": "[4]", "result": 0.16, "unit": "%"}, {"measurement": "Total Hatchability", "setting": "[4]", "result": 89.99, "unit": "%"}, {"measurement": "% Infertile", "setting": "[5]", "result": 4.44, "unit": "%"}, {"measurement": "Chick A", "setting": "[5]", "result": 98.37, "unit": "%"}, {"measurement": "Chick B", "setting": "[5]", "result": 1.64, "unit": "%"}, {"measurement": "Chick Weight", "setting": "[5]", "result": 44.29, "unit": "g"}, {"measurement": "Cont", "setting": "[5]", "result": 0.00, "unit": "%"}, {"measurement": "Crack", "setting": "[5]", "result": 0.00, "unit": "%"}, {"measurement": "Cull dead cks", "setting": "[5]", "result": 0.00, "unit": "%"}, {"measurement": "Dead pip", "setting": "[5]", "result": 0.00, "unit": "%"}, {"measurement": "Early dead", "setting": "[5]", "result": 1.85, "unit": "%"}, {"measurement": "Fertile Hatchability", "setting": "[5]", "result": 95.33, "unit": "%"}, {"measurement": "Late dead", "setting": "[5]", "result": 1.11, "unit": "%"}, {"measurement": "Live pip", "setting": "[5]", "result": 0.56, "unit": "%"}, {"measurement": "Mid dead", "setting": "[5]", "result": 0.93, "unit": "%"}, {"measurement": "Total Hatchability", "setting": "[5]", "result": 91.11, "unit": "%"}, {"measurement": "% Infertile", "setting": "[6]", "result": 2.22, "unit": "%"}, {"measurement": "Chick A", "setting": "[6]", "result": 96.88, "unit": "%"}, {"measurement": "Chick B", "setting": "[6]", "result": 3.12, "unit": "%"}, {"measurement": "Chick Weight", "setting": "[6]", "result": 44.30, "unit": "g"}, {"measurement": "Cont", "setting": "[6]", "result": 0.00, "unit": "%"}, {"measurement": "Crack", "setting": "[6]", "result": 0.00, "unit": "%"}, {"measurement": "Cull dead cks", "setting": "[6]", "result": 0.00, "unit": "%"}, {"measurement": "Dead pip", "setting": "[6]", "result": 0.00, "unit": "%"}, {"measurement": "Early dead", "setting": "[6]", "result": 2.70, "unit": "%"}, {"measurement": "Fertile Hatchability", "setting": "[6]", "result": 94.14, "unit": "%"}, {"measurement": "Late dead", "setting": "[6]", "result": 2.06, "unit": "%"}, {"measurement": "Live pip", "setting": "[6]", "result": 0.16, "unit": "%"}, {"measurement": "Mid dead", "setting": "[6]", "result": 0.79, "unit": "%"}, {"measurement": "Total Hatchability", "setting": "[6]", "result": 92.06, "unit": "%"}, {"measurement": "% Infertile", "setting": "[7]", "result": 0.56, "unit": "%"}, {"measurement": "Chick A", "setting": "[7]", "result": 97.06, "unit": "%"}, {"measurement": "Chick B", "setting": "[7]", "result": 2.94, "unit": "%"}, {"measurement": "Chick Weight", "setting": "[7]", "result": 44.68, "unit": "g"}, {"measurement": "Cont", "setting": "[7]", "result": 0.00, "unit": "%"}, {"measurement": "Crack", "setting": "[7]", "result": 0.00, "unit": "%"}, {"measurement": "Cull dead cks", "setting": "[7]", "result": 0.56, "unit": "%"}, {"measurement": "Dead pip", "setting": "[7]", "result": 0.00, "unit": "%"}, {"measurement": "Early dead", "setting": "[7]", "result": 1.11, "unit": "%"}, {"measurement": "Fertile Hatchability", "setting": "[7]", "result": 94.98, "unit": "%"}, {"measurement": "Late dead", "setting": "[7]", "result": 1.67, "unit": "%"}, {"measurement": "Live pip", "setting": "[7]", "result": 1.11, "unit": "%"}, {"measurement": "Mid dead", "setting": "[7]", "result": 0.56, "unit": "%"}]}]}
